From patent US20230312449A1, “CARBOXYLIC ACID COMPOUND, AND PREPARATION METHOD THEREFOR AND APPLICATION THEREOF” (BOTREE CYCLING SCI & TECH CO., LTD., priority 2020, published 2023) come the findings set out here.

Molecules are shown by their SMILES. “And” between values parts separate entries of the source, which are not always exact repeats. Equal values may be shown once.

This series can be described thus: Solubility of extractant in extraction system, oil content by CH2Cl2 extraction and weighing (Ni/Mg chloride system). Conditions: 0.62 mol/L in Escaid 110; saponification 24%; nickel chloride solution 1.33 g/L Ni, 4 g/L Mg; 30 min; 25° C. The format is physicochemical. On the procedure:
Compound BC195 and diluent Escaid 110 were prepared into a 0.62 mol/L solution, and an aqueous phase was a magnesium-enriched nickel chloride solution containing 1.33 g/L Ni and 4 g/L Mg; 100 mL of the organic phase was added in a 250 mL separatory funnel, 10 mol/L sodium hydroxide aqueous solution was added for saponification to a saponification proportion of 24%, and after the saponification, 100 mL of the aqueous phase was added, extraction equilibrium was carried out for 30 min, and the temperature was 25° C.
Oil content test: the aqueous phase was separated out and added with H2SO4, and the [H^+] concentration of the aqueous phase solution was about 1 mol/L. The CH2Cl2 was used for extraction (30 mL×3), and the CH2Cl2 layer was collected, dried with 1 g anhydrous Na2SO4 to remove the water in CH2Cl2, and filtered; the filtrate was subjected to rotary evaporation, and then the residue was dried with an oil pump for 30 min. The oil content which CH2Cl2 extracted out in the system was obtained by weighing the flask before and after the rotary evaporation.
This comparative example differs from Performance Example 6 in that Compound BC195 was replaced by Extractant CA12 (commercially available, with an acid content of 98%).

With `CCCCCCC(OCC(CC)CCCC)C(=O)O` (stereo not shown) [Compound BC195], the “Equilibrium pH” value is 7.2 and 7.23.
